According to paper PMC6270837, “Preparation and Biological Properties of Ring-Substituted Naphthalene-1-Carboxanilides” (Molecules, 2014):
Entries after “also recorded” stand apart in the source; their conditions may differ.

Tests used:
[1] = Lipophilicity determination by RP-HPLC (capacity factor, log k); format: physicochemical; conditions: end-capped C18, isocratic MeOH 60%/H2O 40%
Protocol: Lipophilicity is a property that has a major effect on bioavailability, biotransformation as well as pharmacological activity, because drugs cross biological membranes through passive transport, which strongly depends on their lipophilicity. Lipophilicity of the studied compounds was determined by RP‑HPLC as capacity factor logarithm (log k). The procedure was performed under isocratic conditions with methanol as an organic modifier in the mobile phase using an end-capped non-polar C18 stationary RP column. The results of ring-substituted naphthalene-1-carboxanilides 1–8c are shown in Table 1 and illustrated in Figure 1. […] Lipophilicity was also calculated as log P using ACD/Percepta ver. 2012 (Advanced Chemistry Development, Inc., Toronto, ON, Canada).
A HPLC system Agilent 1200 equipped with DAD detector (Agilent, USA) was used. A chromatographic column Symmetry® C18 5 μm, 4.6 × 250 mm, Part No. WAT054275 (Waters Corp., Milford, MA, USA) was used. The HPLC separation process was monitored and evaluated by EZChrom Elite software ver. 3.3.2 (Agilent, USA). Isocratic elution by a mixture of MeOH p.a. (60%) and H2O-HPLC Mili-Q grade (40%) as a mobile phase was used. The total flow of the column was 1.0 mL/min, injection 20 μL, column temperature 40 °C, and sample temperature 10 °C. The detection wavelength 210 nm was chosen. The KI methanolic solution was used for the dead time (tD) determination. Retention times (tR) were measured in minutes. The capacity factors k were calculated according to formula k = (tR − tD)/tD, where tR is the retention time of the solute, whereas tD denotes the dead time obtained using an unretained analyte. Log k, calculated from the capacity factor k, is used as the lipophilicity index converted to log P scale.

[2] = test system: M. avium subsp. paratuberculosis; test: MTT assay on mycobacteria; format: cell-based, Mycobacterium avium subsp. paratuberculosis; conditions: lowest tested concentration 8 µg/mL (ca. 30 µmol/L), four hours of incubation
Protocol: Additionally, a standard MTT assay was performed on these same compounds. The MTT assay is a well-characterized method of assessing cell growth through measurement of respiration.
For the MTT assay, the same 96-well plate set up and incubation conditions listed above were used. After the incubation period, a 10% addition of MTT reagent was mixed into each well and incubated at 37 °C for 4 h. The reagent and media were then aspirated from the wells to which 50 µL DMSO was then added and plates were read at 550 nm.

[3] = test system: human monocytic leukemia THP-1 cell line; test: In vitro cytotoxicity assay (LDH)
Protocol: Human monocytic leukemia THP-1 cells were obtained from the European Collection of Cell Cultures (ECACC, Salisbury, UK; Methods of characterization: DNA Fingerprinting (Multilocus probes) and isoenzyme analysis). These cells were routinely cultured in RPMI 1640 (Lonza, Verviers, Belgium) medium supplemented with 10% fetal bovine serum (FBS, Sigma-Aldrich, St. Louis, MO, USA), 2% L-glutamine, 1% penicillin and streptomycin (Lonza) at 37 °C with 5% CO2. Cells were passaged at approximately one-week intervals. Cells were routinely tested for the absence of mycoplasma (Hoechst 33258 staining method). The tested compounds were dissolved in DMSO (Sigma-Aldrich) and added in five increasing concentrations to the cell suspension in the culture medium. The maximum concentration of DMSO in the assays never exceeded 0.1%. Subsequently, the cells were incubated for 24 h at 37 °C with 5% CO2 to various compound concentrations ranging from […] in RPMI 1640 medium. Cell toxicity was determined using a Cytotoxicity Detection Kit^PLUS Lactate dehydrogenase (LDH) assay kit (Roche Diagnostics, Mannheim, Germany) according to the manufacturer’s instructions, as described previously. For LDH assays, cells were seeded into 96-well plates (5 × 10^4 cells/well in 100 μL culture medium) in triplicate in serum-free RPMI 1640 medium, and measurements at 492 nm wavelength (Synergy 2 Multi-Mode Microplate Reader, BioTek, Winooski, VT, USA) were taken 24 h after the treatment with tested compounds. The median lethal dose values, LD50, were deduced through the production of a dose-response curve. All data were evaluated using GraphPad Prism 5.00 software (GraphPad Software, San Diego, CA, USA).
LDH Test Principle: The LDH activity is determined by a coupled enzymatic reaction, whereby the tetrazolium salt INT is reduced to formazan. An increase in the amount of dead or plasma membrane damaged cells results in an increase of LDH enzyme activity in the culture supernatant. This increase in the amount of enzyme activity in the supernatant directly correlates to the amount of formazan formed during a limited time period.

[4] = test system: photosynthetic electron transport (PET) in isolated spinach chloroplasts; test: Inhibition of photosynthetic electron transport (PET) in isolated spinach chloroplasts; format: biochemical, Spinacia oleracea L.; conditions: DCPIP photoreduction
Protocol: The PET-inhibiting activity was expressed by IC50 value, i.e., compound concentration in mol/L causing 50% inhibition of PET.
(§1) Chloroplasts were prepared from spinach (Spinacia oleracea L.) according to Masarovicova and Kralova. The inhibition of photosynthetic electron transport (PET) in isolated spinach chloroplasts was determined spectrophotometrically (Genesys 6, Thermo Scientific, USA), using an artificial electron acceptor 2,6-dichlorophenol-indophenol (DCIPP) according to Kralova et al., and the rate of photosynthetic electron transport was monitored as a photoreduction of DCPIP. The measurements were carried out in phosphate buffer (0.02 mol/L, pH 7.2) containing sucrose (0.4 mol/L), MgCl2 (0.005 mol/L) and NaCl (0.015 mol/L). The chlorophyll content was 30 mg/L in these experiments and the samples were irradiated (~100 W/m^2 with 10 cm distance) with a halogen lamp (250 W) using a 4 cm water filter to prevent warming of the samples (suspension temperature 22 °C). The studied compounds were dissolved in DMSO due to their limited water solubility. […] The inhibitory efficiency of the studied compounds was expressed by IC50 values, i.e., by molar concentration of the compounds causing 50% decrease in the oxygen evolution rate relative to the untreated control.

[5] = Solubility in PET tested medium; format: physicochemical; conditions: PET assay medium, phosphate buffer pH 7.2, DMSO up to 4%
Protocol: as §1

physchem = conditions: aqueous buffer, kinetic from dmso stock

Cc1ccc(NC(=O)c2cccc3ccccc23)cc1 [Compound 3c, N-(4-Methylphenyl)naphthalene-1-carboxamide]
log k [1]: 0.7551 | reduction in activity (MTT) [2]: more than 80% | LD50 ([3]; human, 24 h): >30 µmol/L | lethal effect / toxicity on THP-1 cells ([3]; treatment with 30 μmol/L): did not lead to significant lethal effect; also recorded: insignificant toxicity | IC50 [4]: 381 µM | solubility in tested medium (PET experiments) [5]: limited solubility | solubility (physchem): ≤ 30 µM
